Data: article PMC4877957 (BMC Microbiology, 2016)

Legend:
[1] = target: T1, RoxAXsp (Xanthomonas sp. 35Y, UniProt Q7X0P3); assay: HPLC of polyisoprene cleavage products; format: biochemical; details: poly(cis-1,4-isoprene) latex, oxygen; 23 °C
T1 construct: gene roxA; purified as described previously; c-type dihaem

[2] = target: T2, LcpRr (Rhodococcus rhodochrous, UniProt A0A165QBG6); assay: HPLC product assay (C35 peak), polyisoprene latex; details: read-out: % inhibition at 1 mM
T2 sequence (A0A165QBG6 31-408): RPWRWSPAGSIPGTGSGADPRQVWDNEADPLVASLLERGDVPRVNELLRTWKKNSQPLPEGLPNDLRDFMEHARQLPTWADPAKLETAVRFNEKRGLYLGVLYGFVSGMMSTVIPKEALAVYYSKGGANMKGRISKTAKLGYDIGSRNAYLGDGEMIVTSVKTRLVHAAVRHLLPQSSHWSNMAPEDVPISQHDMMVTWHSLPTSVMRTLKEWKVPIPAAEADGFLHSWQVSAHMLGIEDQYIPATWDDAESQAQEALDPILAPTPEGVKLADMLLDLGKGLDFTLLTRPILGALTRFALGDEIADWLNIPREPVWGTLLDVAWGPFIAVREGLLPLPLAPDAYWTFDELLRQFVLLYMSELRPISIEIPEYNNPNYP

T1 sequence (Q7X0P3 entry or part of it): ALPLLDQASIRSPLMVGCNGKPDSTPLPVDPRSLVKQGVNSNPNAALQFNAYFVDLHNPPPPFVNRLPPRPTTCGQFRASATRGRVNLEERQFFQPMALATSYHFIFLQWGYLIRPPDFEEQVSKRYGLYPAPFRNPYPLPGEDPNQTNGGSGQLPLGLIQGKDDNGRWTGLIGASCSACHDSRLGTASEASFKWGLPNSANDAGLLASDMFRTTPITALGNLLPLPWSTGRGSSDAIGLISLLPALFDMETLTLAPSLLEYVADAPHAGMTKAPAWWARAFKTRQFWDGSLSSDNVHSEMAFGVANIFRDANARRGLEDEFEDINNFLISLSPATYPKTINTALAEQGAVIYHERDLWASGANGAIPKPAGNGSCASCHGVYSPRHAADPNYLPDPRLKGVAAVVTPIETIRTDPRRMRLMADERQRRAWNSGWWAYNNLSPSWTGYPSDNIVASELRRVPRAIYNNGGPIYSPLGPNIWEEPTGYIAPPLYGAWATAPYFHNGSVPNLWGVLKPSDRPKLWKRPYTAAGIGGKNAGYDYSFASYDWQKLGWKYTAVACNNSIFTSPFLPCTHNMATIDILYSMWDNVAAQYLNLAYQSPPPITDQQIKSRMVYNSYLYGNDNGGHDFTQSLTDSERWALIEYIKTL

SMILES | HPLC of polyisoprene cleavage products [1] | inhibition at 1000 µM [2]
CC(=O)CCC=C(C)CCC=C(C)CCC=O [ODTD, 12-oxo-4,8-dimethyl-trideca-4,8-diene-1-al] | ODTD was the main cleavage product of RoxAXsp | –
CCN(CC)C(=S)S [diethyl dithiocarbamate] | – | 82%
